Laboratory results as given in the METLIN SMRT retention time set (Domingo-Almenara et al. 2019).

Assay: gradient 5% acetonitrile 3 min, to 50% in 2 min, to 85% in 15 min, held 3 min, 100 µL/min
Conditions: column: Zorbax Extend-C18 2.1 x 50 mm; eluents: water / acetonitrile, 0.1% formic acid
In short: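 Values are retention times taken from adduct peaks that software picked and an analyst inspected. The pure standards were run as mixtures of ~100 molecules on HPLC linked to a quadrupole time-of-flight mass spectrometer, in positive and negative ionization mode. A Zorbax Extend-C18 column (2.1 × 50 mm, 1.8 μm) was used at 100 μL/min with water and acetonitrile, each including 0.1% formic acid.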

RP-LC retention time | SMILES
764 s | CCc1cc(=O)n(CC(=O)NCc2ccc(F)c(Cl)c2)c(N2CCOCC2)n1
717 s | CCC(=O)N1CCc2sc(C(=O)N3CCN(c4ccc(OC)cc4)CC3)cc2C1
709 s | COc1cccc(N2CC(NC(=O)c3ccccc3C(F)(F)F)CC2=O)c1 (centres undefined)
717 s | O=C(c1cc(Cc2n[nH]c(=O)c3ccccc23)ccc1F)N1CCN(C(=O)C2CC2)CC1
751 s | COc1ccc(C(=O)NC2CCN(c3nnc4ccc(C(F)(F)F)cn34)CC2)cc1
707 s | COc1ccc(-c2c(C)noc2NC(C)=O)cc1S(=O)(=O)Nc1ccc2c(c1)OCCO2
838 s | Cc1ccccc1CN1C(=O)CN(S(C)(=O)=O)CC1(C)C(=O)NCc1ccccc1 (centres undefined)
817 s | CC(C)N1CCCn2cc(S(=O)(=O)NC3CCCCCC3)cc2C1=O
723 s | ClCC(CNCc1ccccc1)c1ccccc1 (centres undefined)
612 s | COc1ccc(/C=C\c2onc(C)c2NC(C)=O)cc1S(=O)(=O)N1CCN(c2ccccn2)CC1
950 s | CC(NC(=O)Nc1cccc(Br)c1)C(=O)N1CCc2ccccc21 (centres undefined)
694 s | CCN(CC)C(=O)c1ccc(-c2nc3cc(NS(=O)(=O)c4ccccc4C)ccc3n2C)cc1
703 s | Cc1ccc(NC(=O)Cn2cnc3nc(N4CCC(C(=O)NC5CC5)CC4)sc3c2=O)cc1F
894 s | CCCS(=O)(=O)N1CCC(c2nc(CCOc3ccc(F)cc3)no2)C1 (centres undefined)
979 s | O=c1cc(-c2cccnc2)oc2c1ccc1ccccc12
799 s | Cc1cccc(N2CCN(c3cc(C(=O)O)c4cc(NC(=O)C5CCCC5)ccc4n3)CC2)c1C
1070 s | CCc1nc(-c2csc(S(=O)(=O)N3CCC(C(=O)Nc4ccc(Cl)cc4)CC3)c2)no1
1060 s | CCOC(=O)c1noc2ncnc(NCCc3ccc(C)cc3)c12
1270 s | CSc1ccc(-c2noc(Cn3ncn4nc(-c5ccc(C)cc5C)cc4c3=O)n2)cc1
1060 s | O=C(c1cn(-c2cc(N3CCCCC3)ncn2)cn1)N1CC=C(c2ccccc2)CC1
607 s | CC1CC(=O)c2cn3ncnc3nc2C1 (centres undefined)
620 s | CCc1ccc(-c2cc(C(=O)N3CCN(C)CC3)[nH]n2)cc1
864 s | COC(=O)c1nc(NC(=O)Cn2nc3c(cc2=O)CCCCC3)sc1C(C)C

RP-LC retention time | SMILES
719 s | O=C(CN1CCC(c2nc(-c3cccc(F)c3)no2)CC1)Nc1ccc2c(c1)OCO2
739 s | COc1ccc(C(=O)Nc2nc(CC(=O)NCc3cccs3)cs2)cc1
771 s | CCN1c2cc(F)ccc2C(=O)NC12CCN(C(=O)c1ccc3c(c1)OCO3)CC2
916 s | O=C1c2ccccc2C(=O)N1CC(=O)N(Cc1ccccc1)c1cccc([N+](=O)[O-])c1
746 s | COCc1noc([C@@H]2CC(F)(F)CN2C(=O)C2CCC2)n1
1030 s | COC(=O)c1ccccc1NC(=O)CSc1nc2ccccc2s1
567 s | CCC(=O)Nc1ccc(CCc2nc3ccc(C(=O)NCCOC)cc3[nH]2)cc1
737 s | Cc1ccc2c(Nc3ccc(C(C)C)cc3)c(C(=O)N3CCCCC3C)cnc2n1 (centres undefined)
620 s | CC(Cc1ccco1)NC(=O)c1ccc2c(c1)nc1n2CCCCC1 (centres undefined)
945 s | CCC1CN(C(=O)Nc2cccc(OC)c2)c2ccccc2O1 (centres undefined)
782 s | O=C(NC1CCN(c2cc(-c3cccs3)[nH]n2)C1)c1ccc(Br)cc1 (centres undefined)
626 s | CCc1ccc2[nH]c3c(c(=O)c2c1)CN(CC(=O)NCc1ccc(F)cc1)CC3
681 s | O=C(CN1c2ccc(F)cc2-c2ccccc2S1(=O)=O)Nc1cccnc1
698 s | CCOc1ccc(-c2cc3n(n2)CCCN(C(=O)c2cc(C)n(C)n2)C3)cc1
588 s | Cc1cc(N2CCOCC2)n2nc(CN3CCN(c4ccccc4)CC3)nc2n1
873 s | O=C(C1=CN(c2cc(F)cc(F)c2)c2ccccc2S1(=O)=O)N1CCCCC1
707 s | COc1ccc(S(=O)(=O)N2CCCC(C(=O)N3CCN(Cc4ccccc4)CC3)C2)cc1Cl (centres undefined)
556 s | O=C(c1ccc[nH]c1=O)N1CCC(Cn2c(COc3ccccc3)nc3ccccc32)CC1
1240 s | COc1ccc2c(c1)CCc1sc(NC(=O)c3cccc(Br)c3)nc1-2
1000 s | O=C(c1ccc(F)c(F)c1)N1CCCC1c1nc(-c2ccccc2Cl)no1 (centres undefined)
588 s | Cc1cccc(CS(=O)(=O)NCCCN2CCN(c3ccccc3)CC2)c1
651 s | CN(C)c1ccc(CNC(=O)CN2C(=O)CCc3cc(Br)ccc32)cc1
757 s | COCCCNC(=O)c1ccc(-c2ccc(Oc3ccccc3)nn2)cc1

RP-LC retention time | SMILES
830 s | Cc1c(C(=O)NC2CC2)cc(-c2ccc(F)cc2)n1C
716 s | O=S(=O)(Nc1ccc(Cn2cncn2)cc1)c1cccc(Cl)c1
691 s | O=C(c1c(F)cccc1F)N1CCN(S(=O)(=O)C2CC2)CC1
594 s | CC(C)NC(=O)CN1CCN(Cc2nc(-c3ccc(N4CCCCC4)nc3)no2)CC1
602 s | Cc1ccc(CN2CCC(CNC(=O)C3CCCN(c4cc(=O)n(C)c(=O)n4C)C3)CC2)cc1 (centres undefined)
837 s | O=C(Nc1ccc(Cl)cc1)c1csc(-c2ccc(N3CCCC3)nc2)n1
883 s | CC(C)C(=O)Nc1ccc2nc(N3CCN(c4cccc(Cl)c4)CC3)cc(C(=O)O)c2c1
802 s | O=C(NCc1ccc(F)cc1Cl)C1CCCN(c2ncnc3c2oc2ccccc23)C1 (centres undefined)
813 s | COc1ccc(NC(=O)c2nc3nc(C)cc(C(F)F)n3n2)cc1Cl
682 s | CCc1cccc(NC(=O)Cn2c(N3CCCC3)nc(C)cc2=O)c1
553 s | O=C([C@@H]1C[C@H](Oc2cccnc2)CN1C(=O)c1ccoc1)N1CCCC1
909 s | CCCS(=O)(=O)c1nc2ccc(NS(=O)(=O)c3cc(OC)ccc3OC)cc2s1
582 s | CS(=O)(=O)c1ccc2nc(NC(=O)CN3C(=O)CCC3=O)sc2c1
571 s | CC(C)CCC(=O)N1CCC(N2C[C@H](O)C[C@H]2C(N)=O)CC1
823 s | CCc1nc2ccccc2c(=O)n1Cc1noc(C2CC(=O)N(c3ccccc3)C2)n1 (centres undefined)
721 s | CC1CCN(c2ncc3c(n2)CCC(C(=O)Nc2ccc(N4CCOCC4)cc2)C3)CC1 (centres undefined)
778 s | O=C(NC1CCN(C(=O)c2cc(-c3cccs3)[nH]n2)CC1)c1ccc(Cl)cc1
690 s | O=C(Cn1cccn1)N1CCCC(c2nnc(-c3ccccc3F)s2)C1 (centres undefined)
712 s | COCCN1C(=O)[C@H]2CN(S(=O)(=O)c3ccccc3)C[C@H]2C1=O
832 s | COc1ccc2[nH]c(-c3ccccc3)c(CCNC(C)=O)c2c1
734 s | COc1ncccc1C(=O)NCCCn1nc(-c2ccc(F)cc2)ccc1=O
912 s | CCCn1nccc1-c1csc(S(=O)(=O)N2CCCC2)c1
763 s | O=C(NC1CCCC1)C1CCCN(C(=O)c2ccc(F)c(F)c2)C1 (centres undefined)

RP-LC retention time | SMILES
1150 s | C=CCN(Cc1nc(-c2ccc(C)cc2)no1)C(=O)Nc1cccc(Cl)c1
587 s | COc1ccc(OC)c(CNC(=O)c2cn3c(n2)CCCC3)c1
836 s | COc1ccc(-c2nc(N3CCCC(C)C3)c3ccccc3n2)cc1 (centres undefined)
909 s | COc1ccc(S(=O)(=O)N2CCc3c(c(-c4nnc(-c5ccccc5)o4)nn3C)C2)cc1
684 s | CCn1ncc(N2CCCC(CC(=O)N3CCSCC3)C2)cc1=O (centres undefined)
653 s | CCc1nc2ccc(-c3noc(CNS(=O)(=O)c4ccccc4)n3)cc2n1CC
1040 s | Cc1c(-c2noc(-c3ccc(N(C)C)cc3)n2)nnn1-c1ccc(F)cc1
682 s | Cc1cc(C(=O)N2CCOCC2)c2cccc(Cl)c2n1
748 s | Cn1nc(C(=O)N2CCN3CCS(=O)(=O)N(C4CC4)C(=O)C3C2)c2ccccc21 (centres undefined)
667 s | CCc1ccc(S(=O)(=O)Nc2ccc(-c3cn4cccc(C)c4n3)cc2)cc1
1030 s | COc1cc(/C=C(\C)c2ccc3c(c2)OCO3)cc(OC)c1OC
1300 s | CCc1noc(NC(C)=O)c1-c1ccc(OC)c(S(=O)(=O)Nc2ccc(C)c(Cl)c2)c1
890 s | Cc1ccn2c(Nc3ccccc3C)c(-c3cccc(Cl)c3)nc2c1
933 s | Cc1cccc(S(=O)(=O)N2CC3CN(C(=O)c4ccco4)CC(C2)O3)c1
759 s | CCOc1ccc(N2CC(c3nc(-c4cccnc4)no3)CC2=O)cc1 (centres undefined)
912 s | O=C(Nc1ccccc1Cl)N1CCC(n2c(C(F)(F)F)nc3cccnc32)CC1
727 s | O=C1CC(C(F)(F)F)c2c(c(C(=O)O)cn2-c2ccc(F)cc2)N1 (centres undefined)
840 s | COC(=O)c1c(NCc2ccc(C(F)(F)F)cc2)c2cc(F)ccc2[nH]c1=O
570 s | CCOc1ncccc1CNC(=O)NCc1cccc(OC)c1
883 s | Cc1ccccc1-c1cn2ccn(-c3ccc(Cl)cc3)c(=O)c2n1
